The values below are quoted from earlier work in patent publication EP2919756B1, “SOLID LIPID NANOPARTICLES OF ROXITHROMYCIN FOR HAIR LOSS OR ACNE” (Gdanski Uniwersytet Medyczny, priority 2012, dated 2014).

The conditions of series [1]: external application of 0.5% solution for 24 weeks.
In series [2] the test system is human hair follicles. The settings on record: human hair follicles in vitro.

As to `CC[C@H]1OC(=O)[C@H](C)[C@@H](O[C@H]2C[C@@](C)(OC)[C@@H](O)[C@H](C)O2)[C@H](C)[C@@H](O[C@@H]2O[C@H](C)C[C@H](N(C)C)[C@H]2O)[C@](C)(O)C[C@@H](C)/C(=N\OCOCCOC)[C@H](C)[C@@H](O)[C@]1(C)O` [roxithromycin, Roxithromycin], in series [1], the “local or systemic side effects or undesirable action” value was “no local or systemic side effects or undesirable action was recorded” and the “thickening of the hair” value was “Substantial thickening of the hair”. In series [1] (patients with androgenic hair loss), the restored hair growth result is “more than half of the patient population”. The hair elongation entry in series [2] is recorded as “caused hair elongation”. Moreover, the “follicle's passage to the catagen phase” value in series [2] (through inhibition of keratinocyte apoptosis) is recorded as “inhibit the follicle's passage to the catagen phase”.
